Source: patent US20260124268A1 (priority 2019, published 2026)
≈ marks a conversion by molar mass, not a printed value. Where “and” joins values, the source holds several entries; their conditions need not be identical. Identical values can stand only once. Like-named read-outs stand apart in the source and are kept apart here.

Assays:
[1] = Evaluation of litter score (percent caked litter); type: in vivo, broilers (male Cobb 500); settings: SF: salinomycin 0.042% in feed; day 28
Method: Evaluation of Litter Score. The litter from each pen was evaluated on day 28 of the trial. The litter was evaluated based on percentage of caked litter in the pen. The percentages were grouped from 0-19, 20-39, 40-59, 60-79, and 80-100%. The mid-value from the percentage range was used to calculate the average pen litter score.

[2] = Growth performance and feed efficiency of challenged broilers; type: in vivo, broilers (male Cobb 500); settings: SF: salinomycin 0.042% in feed; for Avg. daily gain / Weight gain: per bird
Source text: Bird Placement. The birds in this study were sourced from a commercial hatchery and were housed at the Colorado Quality Research facility (CQR). Healthy male Cobb 500 were used in this study and were vaccinated for Mareks at the hatchery and upon arrival at CQR the birds were vaccinated for Newcastle and Infectious Bronchitis and were randomly divided into five treatments. At placement 24 birds were placed into each pen with 11 replicates per treatment. On day eight birds were culled or replaced as needed to have 22 birds per pen with the pen being the statistical unit. The treatments were assigned to blocks and randomized within blocks. All birds in this experiment were discarded on site. All data was collected by the Colorado Quality Research (CQR) staff. The protocol MS-18-1 was approved by the CQR IACUC committee.
Basal and Experimental Diets. The starter, grower, and basal diets were manufactured at the CQR feed mill using CQR formulated diets and described in Table 1. The feed was made and stored in bulk. The final experimental diet mixing, pelleting and crumbling was conducted at CQR using a 500-lb capacity vertical mixer (Seedburo, Golden Valley, MN), a 4000-lb capacity vertical mixer (Prater, Bolingbrook, IL) and/or a 14,000-lb horizontal mixer (H&S Manufacturing, Marshfield, WI) and a California pellet mill (CPM Co., Crawfordsville, IN). The feed was stored in 50-lb feed sacks until needed.
The product was made fresh daily and administered in the water using a liquid medicator (Farmer Boy Ag, Myerstown, PA). A different stock solution was prepared for each treatment and the stock solutions were weighed each day to determine the amount of product consumed. The stock solutions were adjusted accordingly to ensure that the correct dose has been administered based on water consumption. The antibiotic control SF birds were administered Salinomycin (Sacox 60, Phibro Animal Health Corp., Teaneck, NJ) in the feed at 0.042% for the whole experimental period. […] If abnormal conditions or abnormal behavior is noted at any of the twice-daily observations they were documented and added to the study records. The maximum and minimum temperatures were recorded daily. The dead birds were collected and counted each day from each pen. The mortality was recorded on pen sheet and the cause of death was recorded. The pen mortality and the NE-associated mortality were calculated based on total mortality and as a percentage. The percentages were calculated based on the number of re-count birds on day 8. The birds were weighed on day 0, 17, 28, and 35 and the average daily gain was calculated for each of these time periods. The final pen weight was also measured. The amount of feed consumed was calculated from the starter feed (DO-17), the grower feed (D18-28), finisher feed (D29-35), and over the whole period (DO-35). The feed efficiency and adjusted feed efficiency were calculated to compare different growth periods. On day 21, 5 birds from each pen were randomly selected using a first caught method. The birds were sacrificed and evaluated for intestinal lesions to score the severity of the lesion scores using the scale in Table 4.

[3] = test system: Clostridium perfringens (CL-15, Type-A); type: in vivo, broilers (male Cobb 500); settings: SF: salinomycin 0.042% in feed, day 21
[4] = test system: Clostridium perfringens (CL-15, Type-A); type: in vivo, broilers (male Cobb 500); settings: SF: salinomycin 0.042% in feed
[5] = test system: MRSA 81M; assay: microbe, parasite or virus in culture; type: cell-based; settings: Staphylococcus aureus, 24 h
[6] = test system: MRSA LA; assay: microbe, parasite or virus in culture; type: cell-based; settings: Staphylococcus aureus, 24 h
[7] = Day 28-35, % of birds at day 8 re-count

CC[C@@H](C(=O)[C@@H](C)[C@@H](O)[C@H](C)[C@@H]1O[C@@H]([C@@H](CC)C(=O)O)CC[C@@H]1C)[C@H]1O[C@]2(C=C[C@@H](O)[C@]3(CC[C@@](C)([C@H]4CC[C@](O)(CC)[C@H](C)O4)O3)O2)[C@H](C)C[C@@H]1C [Salinomycin, salinomycin]
Average percent caked litter [1]: 79% | Adj. F:G (adjusted feed-to-gain ratio) ([2]; D 0-17): 1.287 | F:G (feed-to-gain ratio) ([2]; D 0-17): 1.320 | Avg. daily gain ([2]; D 0-17): 28.1 g/day | Weight gain ([2]; D 0-17): 0.479 kg | Adj. F:G (adjusted feed-to-gain ratio) ([2]; D 0-28): 1.368 | F:G (feed-to-gain ratio) ([2]; D 0-28): 1.656 | Avg. daily gain ([2]; D 0-28): 50.3 g/day | Weight gain ([2]; D 0-28): 1.407 kg | Adj. F:G (adjusted feed-to-gain ratio) ([2]; D 0-35): 1.448 | F:G (feed-to-gain ratio) ([2]; D 0-35): 1.666 | Avg. daily gain ([2]; D 0-35): 59.6 g/day | Weight gain ([2]; D 0-35): 2.087 kg | Adj. F:G (adjusted feed-to-gain ratio) ([2]; D17-28): 1.421 | Difference in weight gain compared to NTC ([2]; D17-28): −0.21% | F:G (feed-to-gain ratio) ([2]; D17-28): 1.947 | Weight gain less than NTC birds ([2]; D17-28): 2 grams | Avg. daily gain ([2]; D 17-28): 84.4 g/day | Weight gain ([2]; D 17-28): 0.928 kg | Adj. F:G (adjusted feed-to-gain ratio) ([2]; D 28-35): 1.654 | F:G (feed-to-gain ratio) ([2]; D 28-35): 1.691 | Avg. daily gain ([2]; D 28-35): 97.1 g/day | Weight gain ([2]; D 28-35): 0.680 kg | Increase in the harvest weight (final pen weight) compared to NTC ([2]; day 35): 18.2% | Average pen weight ([2]; live pen weight at day 35): 34.59 kg and 34.59a kg | Reduction in lesion score compared to NTC [3]: 50.6% | Average lesion score ([3]; scale 0-4): 0.80 | Total Mortality ([4]; Day 0-17, % of birds at day 8 re-count): (2.1%) | Total Mortality ([4]; Day 0-17, birds dead): 5 | Total Mortality ([4]; Day 0-35, % of birds at day 8 re-count): (5.4%) | NE Mortality ([4]; Day 0-35, birds dead): 5 | Total Mortality ([4]; Day 0-35, birds dead): 13 | Total Mortality ([4]; Day 17-28, % of birds at day 8 re-count): (2.1%) | NE Mortality ([4]; Day 17-28, birds dead): 4 | Total Mortality ([4]; Day 17-28, birds dead): 5 | NE Mortality [4, 7]: (0.4%) | Total Mortality [4, 7]: (1.2%) | NE Mortality ([4]; Day 28-35, birds dead): 1 | Total Mortality ([4]; Day 28-35, birds dead): 3

CO[C@@]1(NC(=O)Cc2cccs2)C(=O)N2C(C(=O)O)=C(COC(N)=O)CS[C@@H]21 [cefoxitin]
MIC [5]: 100 µg/mL (≈ 234 µM) | MIC [6]: 60 µg/mL (≈ 140 µM)
